# In patent publication US10195284B2, “Compositions and methods for controlled localized delivery of bone forming therapeutic agents” (University of Rochester, priority 2013, dated 2019):
# Where “and” joins values, the source holds several entries; their conditions need not be identical. Identical values can stand only once. Like-named read-outs stand apart in the source and are kept apart here. Ends that are not written are not given here.
# Key:
# [1] = molecular target: T1, TRAP protein (Homo sapiens, UniProt P13686); experiment: SPR affinity of peptide-functionalized polymers for TRAP, initial rate analysis of sensorgrams; assay type: binding; conditions: for SPR binding response to TRAP: sensorgrams
# T1 sequence (P13686 22-325): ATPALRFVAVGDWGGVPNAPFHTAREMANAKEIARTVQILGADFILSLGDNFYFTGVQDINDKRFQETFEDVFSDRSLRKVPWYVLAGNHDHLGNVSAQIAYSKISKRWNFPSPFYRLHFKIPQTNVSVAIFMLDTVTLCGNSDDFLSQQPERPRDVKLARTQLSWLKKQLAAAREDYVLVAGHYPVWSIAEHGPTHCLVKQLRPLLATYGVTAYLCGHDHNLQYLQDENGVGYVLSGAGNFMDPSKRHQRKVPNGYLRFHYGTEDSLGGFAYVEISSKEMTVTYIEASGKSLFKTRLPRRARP
# Procedure: Surface plasmon resonance (SPR) is used to assess the affinity of peptide-functionalized polymers for TRAP. Series S Sensor CM5 Chips are functionalized with TRAP via 1-ethyl-3-(3-dimethylaminopropyl) carbodiimide (EDC)/N-hydroxysuccinimide (NHS) chemistry. Briefly, the chips, which have a carboxymethylated dextran functionality, are activated through the introduction of NHS and EDC. After activation, TRAP protein, at 30 μg/mL in sodium acetate (pH=5), is introduced to the surface. Ethanolamine-hydrochloric acid is used to quench unreacted carboxysuccinimide groups. Polymers are dissolved in running buffer of PBS with 0.005% Tween20. Polymers are analyzed in duplicate at different concentrations. Surface regeneration is achieved using 1-10 mM NaOH solutions as necessary. […] Sensorgram data (FIG. 22) are exported from the SPR evaluation software after smoothing data of injection events and analyzed. Response units (RU) are converted into concentrations for rate analysis using the equation: S[M]=RU/60000 MW
# Where S is the concentration of polymer bound to the TRAP-functionalized surface and MW is the molecular weight of the polymer. The binding rates of polymers to TRAP are determined in the initial linear portion of association, within two seconds of the start of injection. The reciprocals of binding rates are plotted against the reciprocals of polymer concentrations to obtain a linear relationship, generalized in the equation: Vi^−1=KDSi^−1Vm^−1Vm^−1
# Where Vi is the binding rate for each i concentration of polymer and Vm is the maximum binding rate of polymer to TRAP. This relationship identifies the KD for each polymer (Table 4). Only TBP-functionalized polymers show affinity for TRAP (FIG. 22), as control (SCP-functionalized and PEG) polymer show no positive binding response (FIG. 23A through FIG. 23C).
# [2] = molecular target: T2, tartrate-resistant acid phosphatase (TRAP) (Homo sapiens, UniProt P13686); experiment: Surface plasmon resonance (SPR) affinity of peptides and peptide-functionalized polymers for TRAP, binding-curve fit
# T2 sequence (P13686 22-325): T1 sequence (P13686 22-325)
# Procedure: Surface plasmon resonance (SPR) is used to assess the affinity of peptides for TRAP. Series S Sensor CM5 Chips are functionalized with TRAP via 1-ethyl-3-(3-dimethylaminopropyl) carbodiimide (EDC)/N-hydroxysuccinimide (NHS) chemistry. Briefly, the chips, which have a carboxymethylated dextran functionality, are activated through the introduction of NHS and EDC. After activation, TRAP protein, at 30 μg/mL in sodium acetate (pH=5), is introduced to the surface. Ethanolamine-hydrochloric acid is used to quench unreacted carboxysuccinimide groups. Peptides are dissolved in running buffer of PBS with 0.005% Tween20. Peptides are analyzed in duplicate at different concentrations. Surface regeneration is achieved using a combination of 1 and 2 M NaCl and 1-50 mM NaOH solutions as necessary.
# In SPR, the binding of any molecules to the surface of the sensor chips results in a change in the angle of incident light reflection, allowing highly-sensitive detection of miniscule amounts of ligand binding to the surface. Target affinity can be determined by introducing increasing concentrations of the ligand to the surface. Higher concentrations of samples elicited larger responses. The binding response was measured and plotted against concentration (FIG. 4), allowing for a fitting of the data by a binding curve. From this fitting, values such as KD can be determined. Through this technique, the affinity of TBP and SCP was analyzed. […] While not wishing to be bound by any particular theory, a possible, but improbable, cause for difference in affinity is the inclusion of the glycine residue on the carboxylic end of the synthesized peptide used herein. Despite this addition, the order of the original sequence is preserved, and glycine is a small, uncharged and nonpolar amino acid. […] In prior studies using phage display, five copies of the peptide are present and exposed (Sheu et al., 2002, Journal of Bone and Mineral Research, 17(5):915-922). Therefore, part of the higher affinity seen in the phage display experiments could be due to the multivalent nature of the peptide on the phage.
# Quantitative analyses of peptide and polymer affinities were performed using SPR. […] The binding of any molecules to the surface of the sensor chips results in a change in the angle of incident light reflection, allowing highly-sensitive detection of miniscule amounts of ligand binding to the surface. Target affinity can be determined by introduction of increasing concentrations of the molecule to the surface (FIG. 38A and FIG. 38B). Typically higher concentrations of samples elicited larger responses, with a larger response from polymers at lower concentrations in comparison to the TBP alone. […] Furthermore, polymer samples required the application of regeneration buffers, ranging from a mild buffer of 500 mM NaCl to a harsher buffer of 5 mM NaOH, to return the signal to previous levels. The binding response is measured and plotted against concentration, allowing for a fitting of the data by a binding curve. From this fitting, values such as the dissociation constant (KD) value can be determined. Through this technique, the affinity of peptides and peptide-functionalized polymers were analyzed. […] However, inclusion of peptide functionalities results in substantial increases in TRAP affinities (KD˜7.1-21 μM). […] While not wishing to be bound by any particular theory, a possible, but improbable, cause for difference in affinity is the inclusion of the glycine residue on the carboxylic end of the synthesized peptide used herein. Despite this addition the order of the original sequence is preserved and glycine is a small, uncharged and nonpolar amino acid. […] In prior studies using phage display, five copies of the peptide are present and exposed (Sheu et al., 2002, Journal of Bone and Mineral Research, 17(5): 915-922). Therefore part of the higher affinity seen in the phage display experiments could be due to the multivalent nature of the peptide on the phage. […]
# [3] = Bone resorption pit binding of fluorescently labeled peptides, confocal imaging; set-up: species or system human; conditions: fluorescently labeled peptide, overnight incubation
# Procedure: Equal concentrations of fluorescently labeled TBP and SCP are prepared in 1× phosphate-buffered saline (PBS). Bone wafers are cut from cortical bone obtained from the femur of a human donor cadaver and incubated in peptide solutions overnight, washed twice with 1×PBS, and then visualized via confocal imaging. Stacked sections are compressed into 2D images to allow for qualitative analysis as in FIG. 3A through FIG. 3D. […] Qualitatively, no binding of SCP is detected (FIG. 3D).
# [4] = test system: Mouse osteoblasts (MC3T3E1); experiment: Cytocompatibility of peptide-functionalized polymers, Picogreen DNA assay; assay type: cell-based; conditions: 0.1 mM and 10 mM, 7 days, normalized to media alone
# Procedure: Mouse osteoblasts (MC3T3E1) were maintained in alpha minimum essential media (α-MEM, Gibco), containing 10% fetal bovine serum (FBS, Invitrogen) and 1% penicillin-streptomycin-fungizone at 37° C. and 5% CO2. Cells were utilized at passage 5. To assess the cytocompatibility of peptide-functionalized polymers, cells were seeded in a 48 well plates at 10,000 cells/well and allowed to adhere overnight. Cells were treated with media alone or with peptide or peptide-functionalized polymers (0.1 mM and 10 mM) for 7 days, with media exchanges every two days. These concentrations employed are far higher than expected to be necessary for future uses and allowed for isolation of the maximum tolerated doses in vitro. After seven days of exposure, cells were washed, lysed by sonication, and analyzed for DNA concentration using the Picogreen Assay (Invitrogen). Results were normalized to cells treated with media alone.
# [5] = test system: areas with cathepsin K and osteoclast activity at calvarial defect; experiment: Co-localization of polymers to actively remodeling bone, two-photon microscopy of cranial window defect; assay type: in vivo, mice; conditions: 5 mg kg^−1 intraperitoneal, imaged thirty minutes later
# Procedure: A thinned-skull cranial window is produced in mice as previously described (Yang et al., 2010, Nat Protoc 5:201). Briefly, a 500-μm diameter defect is made in the skull of mice and covered with a glass coverslip. The night before imaging, mice are injected intraperitoneal with 100 μL reconstituted cathepsin K probe in 1×PBS, prepared according to the manufacturer's protocol. At times of 3 and 8 days post-procedure, 5 mg kg^−1 of fluorescently-labeled pTBP, pSCP, or PEG in saline is injected intraperitoneal and imaged thirty minutes later using two-photon microscopy (Olympus Fluoview). Cathepsin K, a cysteine protease, is secreted by osteoclasts; therefore, TRAP is expected to be present in areas with cathepsin K activity. […] Bone drilling defects have been used previously to investigate osteoclast activity, with osteoclast accumulation at the defect evident from positive TRAP staining (Tanaka et al., 2010, J Biomed Mater Res, 93A(2): 469-474). […] Other live imaging modalities and sections of sacrificed mice are used to track biodistribution to other organs. Since the amino acid sequence of human, mouse, and rat TRAP is 89-94% homologous (Lamp and Drexler, 2000, Leukemia Lymphoma, 39(5-6): 477-484), it is probable that TBP-functionalized polymer therapeutic affinity to TRAP in mice can be translated into humans.
# [6] = Bone targeting of fluorescently labeled polymer therapeutics on osteoclast-resorbed bone wafers; assay type: binding, bovine
# Procedure: Bovine cortical bone is cut into 5-mm square, 0.5-mm thick wafers using a low speed saw with a diamond wafering blade. Bone wafers are boiled in ddH2O for 15 minutes, placed in 96-well plates, sterilized in 70% ethanol for half an hour on each side, washed thrice in 1×PBS, and incubated in alpha minimum essential medium (α-MEM) for at least 1 hour at 37° C. before cell seeding.
# Monocytes are freshly isolated from the spleens of mice, filtered twice with a 40 μm cell strainer, collected via centrifugation (5 minutes, 1000 rpm), and re-suspended in sterile filtered mouse red blood cell lysis buffer for 10 minutes at room temperature. After neutralizing lysis buffer with 1×PBS, monocytes are collected via centrifugation and washed in α-MEM containing 10% fetal bovine serum, 1% penicillin-streptomycin-fungizone, 1% GlutaMAX, and 1% non-essential amino acids before re-suspension in medium containing 100 ng mL^−1 M-CSF conditioned medium (Takeshita et al., 2000, J Bone Miner Res 15:1477). Monocytes are seeded in 96-well plates on the tissue culture surface or on prepared bovine cortical bone wafers at 2×10^5 cells well^−1 (1×10^6 cells mL^−1). After 3 days of incubation at 37° C. and 5% CO2, medium is supplemented with 1 ng mL^−1 receptor activator of nuclear factor κB ligand (RANKL) to induce osteoclast differentiation. […]
# [7] = test system: β-catenin and ALP in osteoblasts; experiment: BIO treatment of osteoblasts, β-catenin levels and ALP production; assay type: cell-based; conditions: 24 hours treatment
# Procedure: Data represents mean±standard deviation for 3 trials. *p<0.05 versus control, #p<0.05 versus 2 μM BIO (n=5).
# Several BIO-releasing polymers that are the correct molecular weight to enhance circulation time and avoid renal clearance have been successfully synthesized. […] Finally, released BIO biological activity is confirmed versus the free, unconjugated molecule and rescue of β-catenin signaling in osteoblasts is verified.
# [8] = Vougogiannopoulou et al., 2008; cited from earlier work
# [9] = TRAP-functionalized CM5 chip, n = 2, Ave. ± StDev, read-out: KD
compound,measurement,setting,value
10% TBP (TPLSYLKGLVTVG),SPR binding response to TRAP,[1],positive response
H-TPLSYLKGLVTVG [TBP],Kd,"[2]; binding-curve fit, read-out: KD for TRAP",~200 µM and ~700 µM
same,Kd,[2]; read-out: affinity for TRAP measured with SPR,795 µM
same,binding to bone resorption pits,[3],specific binding
10% peptide-functionalized polymer (TPLSYLKGLVTVG),Kd,[2]; [9],12.7 µM
same,cytocompatibility / cytotoxic effects,[4],worst cytocompatibility of all polymers tested
TBP-functionalized polymer therapeutics (TPLSYLKGLVTVG),colocalization with cathepsin K and osteoclast activity,[5],colocalize to areas with cathepsin K and osteoclast activity
same,localization to resorption pits,"[6]; resorbed bone wafers, fluorescently labeled",localize to resorption pits
same,affinity for untreated bone,[6]; untreated bone wafers,No affinity
"scrambled control peptide, VPVGTLSYLKLTG (SEQ ID NO: 2) (VPVGTLSYLKLTG-OH; also: methacrylamide introduced on amine end for polymer incorporation) [SCP, reference compound]",affinity for TRAP measured with SPR,[2],no affinity
same,KD for TRAP,[2]; binding-curve fit,did not enable fitting of a binding curve or calculations of affinity
same,binding to bone resorption pits,[3],no binding
20% TBP (TPLSYLKGLVTVG),Kd,[1]; initial rate analysis of SPR sensorgrams,70 µM
"O=C1Nc2cc(Br)ccc2/C1=C1/Nc2ccccc2/C1=N\O [BIO, 6-bromoindirubin-3′-oxime]",ALP production,[7]; analyzed 7-days after treatment,increased
same,β-catenin levels,[7]; just after treatment,increased
same,water solubility,[8],poor water solubility
20% SCP (VPVGTLSYLKLTG) [reference compound],SPR binding response to TRAP,[1],negative responses
10% SCP (VPVGTLSYLKLTG) [reference compound],SPR binding response to TRAP,[1],negative responses
20% peptide-functionalized polymer (TPLSYLKGLVTVG),Kd,[2]; [9],7.5 µM
